Here are results for 3 compounds from ChEMBL document CHEMBL5653631, “A Potent and Selective ULK1 Inhibitor Suppresses Autophagy and Sensitizes Cancer Cells to Nutrient Stress” (iScience, 2018).

Experiment [1] has as its target T1, Dual specificity tyrosine-phosphorylation-regulated kinase 2 (Homo sapiens) (UniProt Q92630).
T1 sequence (whole entry): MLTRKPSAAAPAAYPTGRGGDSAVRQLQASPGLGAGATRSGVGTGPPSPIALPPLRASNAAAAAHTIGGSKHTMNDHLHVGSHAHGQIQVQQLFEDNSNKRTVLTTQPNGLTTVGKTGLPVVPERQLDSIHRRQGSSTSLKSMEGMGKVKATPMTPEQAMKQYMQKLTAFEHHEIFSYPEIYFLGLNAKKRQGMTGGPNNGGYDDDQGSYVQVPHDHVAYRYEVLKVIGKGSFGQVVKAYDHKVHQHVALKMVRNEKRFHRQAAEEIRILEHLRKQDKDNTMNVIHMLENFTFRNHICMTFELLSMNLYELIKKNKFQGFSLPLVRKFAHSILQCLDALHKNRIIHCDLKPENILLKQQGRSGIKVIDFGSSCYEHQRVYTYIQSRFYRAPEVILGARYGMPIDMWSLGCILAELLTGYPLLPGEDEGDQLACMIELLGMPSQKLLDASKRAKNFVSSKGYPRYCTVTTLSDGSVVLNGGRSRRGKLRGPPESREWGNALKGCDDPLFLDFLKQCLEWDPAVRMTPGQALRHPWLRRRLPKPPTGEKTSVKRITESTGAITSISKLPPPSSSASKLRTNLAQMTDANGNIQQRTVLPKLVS
The experiment in a line: Inhibition of human recombinant DYRK2 at 40 nM in presence of ATP by radiometric assay relative to control.

For experiment [2], the target named is SRSF protein kinase 1 (Homo sapiens) (UniProt Q96SB4). In words: Inhibition of human recombinant SRPK1 at 40 nM in presence of ATP by radiometric assay relative to control.
Chain of SRSF protein kinase 1 (Homo sapiens) (Q96SB4 whole entry): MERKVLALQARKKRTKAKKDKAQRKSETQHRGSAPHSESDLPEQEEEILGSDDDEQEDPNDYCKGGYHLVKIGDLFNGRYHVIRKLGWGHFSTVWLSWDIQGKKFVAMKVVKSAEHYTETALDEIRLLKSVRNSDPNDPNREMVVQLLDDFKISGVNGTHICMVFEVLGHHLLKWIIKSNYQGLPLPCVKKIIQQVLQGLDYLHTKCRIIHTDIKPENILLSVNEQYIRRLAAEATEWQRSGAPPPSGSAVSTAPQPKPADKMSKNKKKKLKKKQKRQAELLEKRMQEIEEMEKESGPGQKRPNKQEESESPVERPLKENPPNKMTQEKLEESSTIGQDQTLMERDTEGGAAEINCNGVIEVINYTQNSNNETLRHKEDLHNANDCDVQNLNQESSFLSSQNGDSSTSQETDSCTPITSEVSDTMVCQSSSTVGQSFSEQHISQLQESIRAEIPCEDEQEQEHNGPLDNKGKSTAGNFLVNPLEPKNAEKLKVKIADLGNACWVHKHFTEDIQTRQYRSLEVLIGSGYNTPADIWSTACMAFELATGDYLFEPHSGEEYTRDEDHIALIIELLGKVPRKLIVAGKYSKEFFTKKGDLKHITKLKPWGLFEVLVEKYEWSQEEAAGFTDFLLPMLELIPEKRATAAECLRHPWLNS
In experiment [3] the target is T2, cAMP-dependent protein kinase catalytic subunit PRKX (Homo sapiens) (UniProt P51817).
T2 sequence (whole entry): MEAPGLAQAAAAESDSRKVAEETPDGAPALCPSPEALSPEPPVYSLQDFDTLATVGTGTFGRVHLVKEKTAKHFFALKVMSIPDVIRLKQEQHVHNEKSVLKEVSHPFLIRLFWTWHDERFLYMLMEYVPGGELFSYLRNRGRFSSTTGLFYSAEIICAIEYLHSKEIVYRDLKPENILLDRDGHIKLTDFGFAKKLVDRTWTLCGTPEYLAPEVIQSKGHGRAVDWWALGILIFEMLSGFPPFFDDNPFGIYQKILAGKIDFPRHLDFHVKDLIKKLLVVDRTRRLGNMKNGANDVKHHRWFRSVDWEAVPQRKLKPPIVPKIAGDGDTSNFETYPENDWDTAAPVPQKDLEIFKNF
In words: Inhibition of human recombinant PRKX at 40 nM related to control ULK1.

The target in experiment [4] is T3, Serine/threonine-protein kinase NLK (Homo sapiens) (UniProt Q9UBE8).
T3 sequence (whole entry): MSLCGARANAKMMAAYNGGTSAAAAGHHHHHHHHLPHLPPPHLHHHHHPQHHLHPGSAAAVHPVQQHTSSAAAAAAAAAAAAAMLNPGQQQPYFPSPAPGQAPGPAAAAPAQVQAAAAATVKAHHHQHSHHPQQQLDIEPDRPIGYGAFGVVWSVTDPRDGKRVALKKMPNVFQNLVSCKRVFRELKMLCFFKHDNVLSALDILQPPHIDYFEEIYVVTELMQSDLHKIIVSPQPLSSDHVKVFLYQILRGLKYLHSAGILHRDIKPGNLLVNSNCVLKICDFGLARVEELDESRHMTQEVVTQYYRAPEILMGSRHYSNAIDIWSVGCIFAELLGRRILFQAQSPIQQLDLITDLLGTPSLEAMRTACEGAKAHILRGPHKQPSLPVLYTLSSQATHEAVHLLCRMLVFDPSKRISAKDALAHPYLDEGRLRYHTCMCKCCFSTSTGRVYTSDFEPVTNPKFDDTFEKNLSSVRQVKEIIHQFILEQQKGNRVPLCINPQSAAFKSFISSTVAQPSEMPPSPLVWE
In words: Inhibition of human recombinant NLK at 500 nM related to control ULK1.

Experiment [5] concerns the target Serine/threonine-protein kinase 32B (Homo sapiens) (UniProt Q9NY57). In words: Inhibition of human recombinant YANK2 at 500 nM in presence of ATP by radiometric assay relative to control.
Experiment [6] addresses T4, Serine/threonine-protein kinase TAO1 (Homo sapiens) (UniProt Q7L7X3).
T4 sequence (whole entry): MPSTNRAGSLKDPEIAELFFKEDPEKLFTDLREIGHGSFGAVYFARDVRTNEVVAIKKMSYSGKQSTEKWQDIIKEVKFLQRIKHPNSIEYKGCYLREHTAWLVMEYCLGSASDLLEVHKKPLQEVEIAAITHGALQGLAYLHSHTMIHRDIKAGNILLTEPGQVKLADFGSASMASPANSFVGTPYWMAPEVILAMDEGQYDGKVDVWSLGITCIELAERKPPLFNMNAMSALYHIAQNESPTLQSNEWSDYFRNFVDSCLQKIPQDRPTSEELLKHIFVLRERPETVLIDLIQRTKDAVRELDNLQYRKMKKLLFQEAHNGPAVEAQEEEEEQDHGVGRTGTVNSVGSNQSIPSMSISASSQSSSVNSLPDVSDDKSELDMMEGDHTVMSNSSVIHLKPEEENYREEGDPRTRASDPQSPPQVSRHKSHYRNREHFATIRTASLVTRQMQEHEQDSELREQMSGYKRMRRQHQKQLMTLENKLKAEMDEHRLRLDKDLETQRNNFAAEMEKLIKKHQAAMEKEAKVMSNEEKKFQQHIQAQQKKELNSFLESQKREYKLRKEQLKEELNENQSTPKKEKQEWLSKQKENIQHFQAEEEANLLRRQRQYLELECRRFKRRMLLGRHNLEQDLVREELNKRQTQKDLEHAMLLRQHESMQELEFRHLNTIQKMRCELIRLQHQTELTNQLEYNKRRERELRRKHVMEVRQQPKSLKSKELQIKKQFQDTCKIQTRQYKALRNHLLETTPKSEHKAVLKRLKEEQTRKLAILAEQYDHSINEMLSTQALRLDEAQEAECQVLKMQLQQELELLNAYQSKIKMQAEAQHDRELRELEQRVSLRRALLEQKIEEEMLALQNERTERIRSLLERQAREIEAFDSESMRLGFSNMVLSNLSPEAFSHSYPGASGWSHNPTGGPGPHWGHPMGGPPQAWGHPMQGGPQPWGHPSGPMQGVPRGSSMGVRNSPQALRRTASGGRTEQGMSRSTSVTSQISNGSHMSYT
The experiment in a line: Inhibition of human recombinant TAO1 at 500 nM in presence of ATP by radiometric assay relative to control.

For experiment [7], the target named is MAP/microtubule affinity-regulating kinase 3 (Homo sapiens) (UniProt P27448). The experiment in a line: Inhibition of human recombinant MARK3 at 15 nM related to control ULK1.
Chain of MAP/microtubule affinity-regulating kinase 3 (Homo sapiens) (P27448 whole entry, looked up): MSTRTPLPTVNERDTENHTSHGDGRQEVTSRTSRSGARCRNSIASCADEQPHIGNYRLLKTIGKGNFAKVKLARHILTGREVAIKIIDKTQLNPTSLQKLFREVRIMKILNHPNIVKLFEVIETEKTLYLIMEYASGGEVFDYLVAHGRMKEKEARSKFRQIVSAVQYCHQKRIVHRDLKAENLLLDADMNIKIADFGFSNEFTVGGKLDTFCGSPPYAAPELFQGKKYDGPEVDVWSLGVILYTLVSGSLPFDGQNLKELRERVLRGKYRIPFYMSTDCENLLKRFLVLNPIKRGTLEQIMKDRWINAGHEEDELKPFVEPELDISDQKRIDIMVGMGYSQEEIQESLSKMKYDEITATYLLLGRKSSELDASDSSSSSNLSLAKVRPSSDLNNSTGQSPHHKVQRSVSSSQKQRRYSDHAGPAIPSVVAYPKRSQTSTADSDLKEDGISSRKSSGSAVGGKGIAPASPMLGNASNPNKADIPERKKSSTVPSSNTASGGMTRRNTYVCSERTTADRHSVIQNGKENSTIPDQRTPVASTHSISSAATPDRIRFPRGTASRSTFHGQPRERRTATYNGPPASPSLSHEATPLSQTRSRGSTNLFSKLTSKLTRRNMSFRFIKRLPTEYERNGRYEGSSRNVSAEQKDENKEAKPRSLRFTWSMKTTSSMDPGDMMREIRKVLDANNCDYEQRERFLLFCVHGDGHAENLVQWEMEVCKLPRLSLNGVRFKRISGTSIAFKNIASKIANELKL
The target in experiment [8] is Serine/threonine-protein kinase mTOR (Homo sapiens) (UniProt P42345). In words: Inhibition of human recombinant FRAP at 15 nM in presence of ATP by radiometric assay relative to control.

Chain of Serine/threonine-protein kinase 32B (Homo sapiens) (Q9NY57 whole entry): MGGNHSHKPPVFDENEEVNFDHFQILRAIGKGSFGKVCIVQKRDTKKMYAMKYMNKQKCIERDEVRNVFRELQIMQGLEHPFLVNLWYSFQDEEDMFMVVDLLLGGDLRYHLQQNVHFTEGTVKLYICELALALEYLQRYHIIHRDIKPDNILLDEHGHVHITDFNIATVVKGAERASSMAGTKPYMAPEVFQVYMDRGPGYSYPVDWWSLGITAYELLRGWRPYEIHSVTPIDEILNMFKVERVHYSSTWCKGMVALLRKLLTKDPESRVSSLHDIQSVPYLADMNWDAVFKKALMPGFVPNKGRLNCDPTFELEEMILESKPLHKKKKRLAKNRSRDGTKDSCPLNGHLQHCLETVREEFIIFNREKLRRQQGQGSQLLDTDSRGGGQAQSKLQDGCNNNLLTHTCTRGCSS

As for `O=C(N[C@@H](C1CC1)C(F)(F)F)c1cc(-c2cnn3cc(-c4ccc(F)cc4)cnc23)cs1`, the inhibition worked out at 11% in experiment [1] and 10% in experiment [2]. Besides, the fold change (FC) in experiment [3] worked out at 0.27.
`CNC(=O)c1ccccc1Oc1nc(Nc2cc(OC)c(OC)c(OC)c2)ncc1Br`: the fold change (FC) in experiment [4] came out at 0.05. The figures for the inhibition in experiment [5] and in experiment [6] were 2% and 6%, respectively.
Turning to `CC(C)[C@H](NC(=O)c1cc(-c2cnn3cc(-c4ccc(OCCN5CCCCC5)cc4)cnc23)cs1)C(F)(F)F`, the fold change (FC) in experiment [7] came to 0.72. For the same compound, the inhibition in experiment [8] is 0%.

The inhibition is the drop in the measured response relative to a control, in per cent.
